Here are results for 3 molecules from ChEMBL document CHEMBL1141816, “Massarinolins A-C: new bioactive sesquiterpenoids from the aquatic fungus massarina tunicata” (1999).

Experiment [1] deals with Bacillus subtilis. Put plainly: Antibacterial activity against Bacillus subtilis ATCC 6051 at 200 ug/disk by standard disk assay. The note with it: for zone of inhibition at 200 µg/disc: read-out: IZ. It counts as functional.
Experiment [2] has as its system Staphylococcus aureus. As to the kind of experiment: Antibacterial activity against Staphylococcus aureus ATCC 29213 at 200 ug/disk by standard disk assay. The experiment is classed as functional.
The test system of experiment [3] is Candida albicans. Put plainly: Antifungal activity against Candida albicans ATCC 14053 at 200 ug/disk by standard disk assay. The experiment is classed as functional, organism-based.

Activity calls are given as the source filed them. The rule behind the calls is not given here.

Turning to `C=C1CC[C@H]2C[C@@H]1[C@]2(CO)C[C@H](O)/C=C(\C)C(=O)O`, the result in experiment [1], in experiment [2] and in experiment [3] was inactive.

On to `C=C1CC[C@H]2C[C@@H]1[C@@]21CO[C@]2(C=C(C)C(=O)O2)[C@H]1O` [MASSARINOLIN A], for which the zone of inhibition at 200 µg/disc in experiment [1] was determined as 17 mm; in experiment [2] (read-out: IZ) it was 10 mm. Moreover, in experiment [3], the result was inactive.

Consider `C/C(=C\[C@@H](O)C[C@@]12CO[C@]3(C)CC[C@H]1C[C@H]23)C(=O)O` [MASSARINOLIN B], for which the zone of inhibition at 200 µg/disc in experiment [1] was 8 mm. Also, the outcome in experiment [3] was inactive.
